PubChem BioAssay AID330 (DTP/NCI, 2004)
Where “and” joins values, the source holds several entries; their conditions need not be identical. Equal values may be shown once. Toxic doses and inconclusive results are not listed.

Test system: P388 leukemia ip, CD2F1 mice, survival T/C
Experiment: NCI In Vivo Anticancer Drug Screen. Data for tumor model P388 Leukemia (intraperitoneal) in CD2F1 (CDF1) mice
Settings: endpoint: median survival time, higher = longer survival
Method in brief: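 Mice carrying the transplanted tumor received test compound or vehicle. Survival was recorded in each group, and the value is the treated-group measurement divided by that of the vehicle-treated control group.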

[1] = dose: 50.0 mg/kg/injection, schedule: Q01DX009 (ip), vehicle: Klucel (hydroxypropylcellulose) (HPC)
[2] = dose: 100.0 mg/kg/injection, schedule: Q01DX009 (ip), vehicle: Klucel (hydroxypropylcellulose) (HPC)
[3] = dose: 200.0 mg/kg/injection, schedule: Q01DX009 (ip), vehicle: Klucel (hydroxypropylcellulose) (HPC)
[4] = dose: 50.0 mg/kg/injection, schedule: Q01DX009 (ip), vehicle: saline with Tween-80
[5] = dose: 100.0 mg/kg/injection, schedule: Q01DX009 (ip), vehicle: saline with Tween-80
[6] = dose: 50.0 mg/kg/injection, schedule: Q01DX005 (ip), vehicle: Klucel (hydroxypropylcellulose) (HPC)
[7] = dose: 100.0 mg/kg/injection, schedule: Q01DX005 (ip), vehicle: Klucel (hydroxypropylcellulose) (HPC)
[8] = dose: 200.0 mg/kg/injection, schedule: Q01DX009 (ip), vehicle: saline with Tween-80
[9] = dose: 60.0 mg/kg/injection, schedule: Q01DX005 (ip), vehicle: Klucel (hydroxypropylcellulose) (HPC)
[10] = dose: 120.0 mg/kg/injection, schedule: Q01DX005 (ip), vehicle: Klucel (hydroxypropylcellulose) (HPC)
[11] = dose: 240.0 mg/kg/injection, schedule: Q01DX005 (ip), vehicle: Klucel (hydroxypropylcellulose) (HPC)
[12] = dose: 400.0 mg/kg/injection, schedule: Q01DX009 (ip), vehicle: saline with Tween-80
[13] = dose: 60.0 mg/kg/injection, schedule: Q01DX005 (ip), vehicle: saline with Tween-80
[14] = dose: 50.0 mg/kg/injection, schedule: Q01DX005 (ip), vehicle: saline with Tween-80
[15] = dose: 100.0 mg/kg/injection, schedule: Q01DX005 (ip), vehicle: saline with Tween-80
[16] = dose: 200.0 mg/kg/injection, schedule: Q01DX005 (ip), vehicle: saline with Tween-80

c1ccc(C2=C([P+](c3ccccc3)(c3ccccc3)c3ccccc3)CCO2)cc1
T/C (dose: 1.56 mg/kg/injection, schedule: Q01DX009 (ip), vehicle: saline): 110 % of control and 117 % of control | T/C (dose: 2.6 mg/kg/injection, schedule: Q01DX009 (ip), vehicle: saline): 114 % of control | T/C (dose: 3.13 mg/kg/injection, schedule: Q01DX009 (ip), vehicle: saline): 119 % of control and 120 % of control | T/C (dose: 4.0 mg/kg/injection, schedule: Q01DX009 (ip), vehicle: saline): 114 % of control | T/C (dose: 6.0 mg/kg/injection, schedule: Q01DX009 (ip), vehicle: saline): 117 % of control | T/C (dose: 6.25 mg/kg/injection, schedule: Q01DX009 (ip), vehicle: saline): 124 % of control | T/C (dose: 9.0 mg/kg/injection, schedule: Q01DX009 (ip), vehicle: saline): 118 % of control | T/C (dose: 12.5 mg/kg/injection, schedule: Q01DX009 (ip), vehicle: saline): 100 % of control and 109 % of control

C=Cn1c([N+](=O)[O-])cnc1/C=C\c1ccc(C(=O)NC(C)C)cc1
T/C (dose: 100.0 mg/kg/injection, schedule: Q04DX002 (ip), vehicle: gum acacia): 92 % of control | T/C (dose: 200.0 mg/kg/injection, schedule: Q04DX002 (ip), vehicle: gum acacia): 96 % of control | T/C (dose: 400.0 mg/kg/injection, schedule: Q04DX002 (ip), vehicle: gum acacia): 92 % of control

Cc1ccc2c(C(=O)O)cc(-c3ccc4c(c3)OCO4)nc2c1
T/C [1]: 98 % of control | T/C [2]: 98 % of control | T/C [3]: 106 % of control

O=C(Nc1ccc(Cl)cc1)OCC12COCN1COC2
T/C [4]: 87 % of control | T/C [5]: 95 % of control

Cc1ccccc1N=Nc1c(N)ccc2ccccc12
T/C [2]: 105 % of control | T/C [3]: 111 % of control | T/C (dose: 400.0 mg/kg/injection, schedule: Q01DX009 (ip), vehicle: Klucel (hydroxypropylcellulose) (HPC)): 109 % of control

O=C1C=C(OCc2ccccc2)C(=O)C(OCc2ccccc2)=C1
T/C [6]: 94 % of control | T/C [7]: 100 % of control | T/C (dose: 200.0 mg/kg/injection, schedule: Q01DX005 (ip), vehicle: Klucel (hydroxypropylcellulose) (HPC)): 104 % of control

COC(=O)/C(C#N)=C/N(C)c1ccc([N+](=O)[O-])cc1
T/C [4]: 100 % of control | T/C [5]: 104 % of control | T/C [8]: 92 % of control

Cc1ccccc1C1OC2=C(Nc3ccccc3N2)C1=O (configuration not stated)
T/C [9]: 99 % of control | T/C [10]: 101 % of control | T/C [11]: 92 % of control

COc1ccc(N=C/C=C/c2ccccc2)cc1
T/C [5]: 118 % of control | T/C [8]: 118 % of control | T/C [12]: 118 % of control

Cc1ccc(-c2cc(Cl)c3cc(S(=O)(=O)F)ccc3n2)cc1
T/C [5]: 104 % of control | T/C (dose: 100.0 mg/kg/injection, schedule: Q04DX003 (ip), vehicle: saline with Tween-80): 100 % of control | T/C [8]: 100 % of control | T/C (dose: 200.0 mg/kg/injection, schedule: Q04DX003 (ip), vehicle: saline with Tween-80): 100 % of control | T/C [12]: 104 % of control | T/C (dose: 400.0 mg/kg/injection, schedule: Q04DX003 (ip), vehicle: saline with Tween-80): 100 % of control

CCOC(=O)c1ccc2c(c1)CCC2
T/C (dose: 50.0 mg/kg/injection, schedule: Q01DX009 (ip), vehicle: acetone): 104 % of control | T/C (dose: 100.0 mg/kg/injection, schedule: Q01DX009 (ip), vehicle: acetone): 104 % of control

O=S(=O)(F)c1ccc(C[P+](c2ccccc2)(c2ccccc2)c2ccccc2)cc1Cl
T/C (dose: 15.0 mg/kg/injection, schedule: Q01DX005 (ip), vehicle: saline with Tween-80): 111 % of control | T/C (dose: 30.0 mg/kg/injection, schedule: Q01DX005 (ip), vehicle: saline with Tween-80): 106 % of control | T/C [13]: 110 % of control and 86 % of control

COc1ccc(Cc2cc(O)c(OC)cc2O)cc1
T/C (dose: 0.32 mg/kg/injection, schedule: Q01DX009 (ip), vehicle: saline with Tween-80): 104 % of control | T/C (dose: 0.63 mg/kg/injection, schedule: Q01DX009 (ip), vehicle: saline with Tween-80): 107 % of control | T/C (dose: 1.25 mg/kg/injection, schedule: Q01DX009 (ip), vehicle: saline with Tween-80): 104 % of control | T/C (dose: 2.5 mg/kg/injection, schedule: Q01DX009 (ip), vehicle: saline with Tween-80): 111 % of control | T/C (dose: 5.0 mg/kg/injection, schedule: Q01DX009 (ip), vehicle: saline with Tween-80): 100 % of control and 108 % of control | T/C (dose: 10.0 mg/kg/injection, schedule: Q01DX009 (ip), vehicle: saline with Tween-80): 106 % of control

O=C(O)/C=C(/C(=O)O)C12CCN3CC4=CCOC5CC(=O)NC1C5C4CC32 (configuration not stated)
T/C [9]: 97 % of control | T/C [10]: 106 % of control | T/C [11]: 110 % of control

C=Cc1cc(OC)c2c(c1)c(=O)oc1c2cc(OC)c2c(O)ccc(C3OC(C)C(O)C(C)(O)C3O)c21 (configuration not stated)
T/C (dose: 1.56 mg/kg/injection, schedule: Q01DX005 (ip), vehicle: DMSO): 115 % of control | T/C (dose: 3.12 mg/kg/injection, schedule: Q01DX005 (ip), vehicle: DMSO): 118 % of control | T/C (dose: 12.5 mg/kg/injection, schedule: Q01DX005 (ip), vehicle: DMSO): 150 % of control | T/C (dose: 25.0 mg/kg/injection, schedule: Q01DX005 (ip), vehicle: DMSO): 150 % of control | T/C (dose: 50.0 mg/kg/injection, schedule: Q01DX005 (ip), vehicle: DMSO): 169 % of control

Cc1nc([N+](=O)[O-])cn1-c1nc2ccccn2c1[N+](=O)[O-]
T/C [1]: 92 % of control | T/C [2]: 94 % of control | T/C [3]: 91 % of control

Cc1ccc(OP(=O)(Oc2ccc(C)cc2)Oc2ccc(C)cc2)cc1.Cc1ccc(OP(=O)(Oc2ccc(C)cc2)Oc2ccc(C)cc2)cc1.Cc1ccc(OP(=O)(Oc2ccc(C)cc2)Oc2ccc(C)cc2)cc1.Cc1ccc(OP(=O)(Oc2ccc(C)cc2)Oc2ccc(C)cc2)cc1.[Nd+3].[O-][Cl+3]([O-])([O-])O
T/C (dose: 100.0 mg/kg/injection, schedule: Q01DX001 (ip), vehicle: Klucel (hydroxypropylcellulose) (HPC)): 90 % of control | T/C (dose: 200.0 mg/kg/injection, schedule: Q01DX001 (ip), vehicle: Klucel (hydroxypropylcellulose) (HPC)): 91 % of control | T/C (dose: 400.0 mg/kg/injection, schedule: Q01DX001 (ip), vehicle: Klucel (hydroxypropylcellulose) (HPC)): 86 % of control

FC(F)(F)C1(C(F)(F)F)OS2(F)(F)(OC(C(F)(F)F)(C(F)(F)F)c3ccccc32)c2ccccc21
T/C (dose: 25.0 mg/kg/injection, schedule: Q01DX005 (ip), vehicle: Klucel (hydroxypropylcellulose) (HPC)): 92 % of control | T/C [6]: 95 % of control | T/C [7]: 94 % of control

CC(Br)C(=O)Nc1ncc([N+](=O)[O-])s1 (configuration not stated)
T/C (dose: 100.0 mg/kg/injection, schedule: Q01DX009 (ip), vehicle: saline): 95 % of control | T/C (dose: 200.0 mg/kg/injection, schedule: Q01DX009 (ip), vehicle: saline): 100 % of control

CC(=O)Oc1cccc2c1ccc1nonc12
T/C [14]: 88 % of control | T/C [15]: 88 % of control | T/C [16]: 88 % of control

CSc1nc(NC2OCC(OC(C)=O)C(OC(C)=O)C2OC(C)=O)c(N=CC=Nc2c(NC3OCC(OC(C)=O)C(OC(C)=O)C3OC(C)=O)nc(SC)[nH]c2=O)c(=O)[nH]1 (configuration not stated)
T/C [13]: 90 % of control | T/C (dose: 120.0 mg/kg/injection, schedule: Q01DX005 (ip), vehicle: saline with Tween-80): 92 % of control | T/C (dose: 240.0 mg/kg/injection, schedule: Q01DX005 (ip), vehicle: saline with Tween-80): 89 % of control

Brc1cc(-c2ccccc2)no1
T/C [1]: 104 % of control | T/C [2]: 111 % of control | T/C [3]: 109 % of control

CN(C)c1ncnc2c1ccn2COCCO
T/C (dose: 50.0 mg/kg/injection, schedule: Q01DX005 (ip), vehicle: distilled water + alcohol): 100 % of control | T/C (dose: 100.0 mg/kg/injection, schedule: Q01DX005 (ip), vehicle: distilled water + alcohol): 98 % of control | T/C (dose: 200.0 mg/kg/injection, schedule: Q01DX005 (ip), vehicle: distilled water + alcohol): 107 % of control

N#Cc1ccccc1-n1c(=O)c2cc3c(=O)n(-c4ccccc4C#N)c(=O)c3cc2c1=O
T/C (dose: 25.0 mg/kg/injection, schedule: Q01DX009 (ip), vehicle: saline with Tween-80): 100 % of control and 103 % of control | T/C [4]: 95 % of control and 97 % of control | T/C [5]: 100 % of control and 103 % of control | T/C [8]: 102 % of control and 95 % of control | T/C [12]: 100 % of control and 96 % of control

Cc1cc(C)n(P2(n3nc(C)cc3C)=NP(n3nc(C)cc3C)(n3nc(C)cc3C)=NP(n3nc(C)cc3C)(n3nc(C)cc3C)=N2)n1
T/C [14]: 98 % of control | T/C [15]: 98 % of control | T/C [16]: 99 % of control
